Measured values taken from patent US9345793B2, “Compounds for binding to the platelet specific glycoprotein IIB/IIIA and their use for imaging of thrombi” (PIRAMAL IMAGING SA, priority 2011, dated 2016).
Read-outs that look alike come from different tables or passages of the source.

Target: human GPIIb/IIIa receptor (Homo sapiens (Human), UniProt P05106+P08514)
Experiment: Affinity assay: displacement of tritiated reference compound from immobilized purified GPIIb/IIIa
Type: binding
Procedure: Affinity assay: In the first step human GPIIb/IIIa purified from human platelets was immobilized on a 96-well solid plate. After 48 hours the plates were washed and the unspecific binding sites were blocked with Roti®-Block. 2. In the next step, the plates were simultaneously incubated with a tritium labeled known GPIIb/IIIa binder (^3H) mixed with increasing concentrations of the novel small molecule compounds (inhibitor, ^19F). The higher the affinity of the inhibitor, the lower the bound fraction of the tritiated known GPIIb/IIIa binder (^3H) was. The fraction of tritiated compound (^3H), which is not displaced by inhibitor, was measured in a microplate scintillation counter.
Purified human glycoprotein IIb/IIIa (20 mM Tris-HCl, 0.1 M NaCl, 0.1% Triton X-100, 1 mM CaCl2, 0.05% NaN3, 50% Glycerol, pH 7.4) was purchased from Enzyme Research Laboratories Inc. (South Bend, Ind.). The GPIIb/IIIa receptor was diluted in phosphate-buffered saline (Dulbecco's Phosphate Buffered Saline (D-PBS(+)) with calcium and magnesium, GIBCO®, Invitrogen) with 0.01% bovine serum albumin (albumin from bovine serum—lyophilized powder, ≧96%, Sigma).
The GPIIb/IIIa receptor was immobilized 48 hours at least (100 μL per well, 48 to maximum 96 hours) on a 96-well solid plate (Immuno Plate MaxiSorp™, Nunc, Roskilde, Denmark) at 277 K to 280 K and at a concentration of 0.1 μg per well to 1 μg per well. As negative control one row of the plate (n=8) was incubated just with 2% bovine serum albumin (200 μper well, albumin from bovine serum—lyophilized powder, […], Sigma, diluted in D-PBS(+)). After washing three times with the wash buffer (230 μL per well, Dulbecco's Phosphate Buffered Saline (D-PBS (−)) contains no calcium or magnesium, GIBCO®, Invitrogen) residual exposed plastic and unspecific binding sites were blocked by incubating the plate with a special blocking solution (200 μL per well, Roti®-Block, Carl Roth GmbH Co KG, Karlsruhe) containing 2% bovine serum albumin (Albumin from bovine serum—lyophilized powder, ≧96%, Sigma) 1 hour at room temperature.
After washing three times with the wash buffer 50 μL of tritiated reference compound (60 nM, ^3H-labeled compound) and 50 μL of novel compound (inhibitor, ^19F) were simultaneously added to each well and incubated for 1 hour at room temperature. Several concentrations of each novel inhibitor (0.1, 1, 2, 5, 10, 20 50, 100, 200, 500, 1000, 2000, 5000, 10000 and 20000 nM) were investigated. At each concentration of inhibitor a fourfold determination was performed.
The maximum value of tritiated reference compound was determined without addition of inhibitor (n=8). To exclude unspecific binding of ^3H-reference compound wells without glycoprotein receptors were used as negative controls (n=12, identically treated just without GP IIb/IIIa receptors).
After one hour the plate was washed three times with phosphate-buffered saline (200 μL per well, Dulbecco's Phosphate Buffered Saline (D-PBS(+)), GIBCO®, Invitrogen). Following 140 μL of liquid scintillation cocktail (MicroScint™ 40 aqueous, Perkin Elmer) was added to each well. After 15 min at room temperature the plates were measured at the microplate scintillation counter (TopCount NXT v2.13, Perkin Elmer, Packard Instrument Company).
In the first step human glycoprotein IIb/IIIa, which is purified from human platelets, was immobilized on a 96-well solid plate. After 48 hours at least the plates were washed and the unspecific binding sites were blocked with Roti®-Block. In the next step, the plates were simultaneously incubated with a tritium labeled reference compound and the novel small molecule compound (inhibitor). The higher the affinity of the inhibitor, the smaller is the bound fraction of reference compound. The fraction of tritiated reference compound, which is not displaced by inhibitor, was measured at a microplate scintillation counter.

[1] = 19F compounds vs 60 nM 3H-labeled reference compound, 1 hour at room temperature, read-out: IC50 human
[2] = values repeated beside the 18F-compound, read-out: IC50 human (corresponding 19F-compound, Table 2)

Sequence of human GPIIb/IIIa receptor (P08514 32-887): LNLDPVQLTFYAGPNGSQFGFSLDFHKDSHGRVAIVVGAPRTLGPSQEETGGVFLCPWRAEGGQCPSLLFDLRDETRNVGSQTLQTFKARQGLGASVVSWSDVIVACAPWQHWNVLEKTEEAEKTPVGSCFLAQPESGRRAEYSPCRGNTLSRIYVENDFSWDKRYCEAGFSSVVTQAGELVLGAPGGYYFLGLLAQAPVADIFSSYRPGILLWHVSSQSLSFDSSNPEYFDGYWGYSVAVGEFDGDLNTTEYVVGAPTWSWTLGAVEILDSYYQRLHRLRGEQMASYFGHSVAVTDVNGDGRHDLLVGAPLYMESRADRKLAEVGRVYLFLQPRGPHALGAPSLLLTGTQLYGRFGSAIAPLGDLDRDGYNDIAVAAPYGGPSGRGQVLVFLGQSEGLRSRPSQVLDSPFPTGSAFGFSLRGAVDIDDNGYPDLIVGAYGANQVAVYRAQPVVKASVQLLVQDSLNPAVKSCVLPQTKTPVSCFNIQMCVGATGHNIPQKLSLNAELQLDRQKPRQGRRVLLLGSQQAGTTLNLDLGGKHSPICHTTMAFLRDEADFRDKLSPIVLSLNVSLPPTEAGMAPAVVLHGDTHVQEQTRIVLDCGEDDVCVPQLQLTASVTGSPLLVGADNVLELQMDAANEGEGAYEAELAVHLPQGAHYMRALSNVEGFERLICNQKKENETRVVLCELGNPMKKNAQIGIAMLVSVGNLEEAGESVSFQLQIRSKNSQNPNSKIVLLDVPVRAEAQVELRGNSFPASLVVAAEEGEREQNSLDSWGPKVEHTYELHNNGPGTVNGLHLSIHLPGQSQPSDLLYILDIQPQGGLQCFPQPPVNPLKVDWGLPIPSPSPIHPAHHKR
Sequence of human GPIIb/IIIa receptor (P08514 891-1039 partner): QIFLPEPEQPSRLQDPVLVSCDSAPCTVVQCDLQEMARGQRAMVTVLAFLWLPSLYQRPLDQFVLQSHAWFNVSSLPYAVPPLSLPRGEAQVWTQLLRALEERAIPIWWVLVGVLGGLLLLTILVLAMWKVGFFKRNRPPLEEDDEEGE
Sequence of human GPIIb/IIIa receptor (P05106 27-788): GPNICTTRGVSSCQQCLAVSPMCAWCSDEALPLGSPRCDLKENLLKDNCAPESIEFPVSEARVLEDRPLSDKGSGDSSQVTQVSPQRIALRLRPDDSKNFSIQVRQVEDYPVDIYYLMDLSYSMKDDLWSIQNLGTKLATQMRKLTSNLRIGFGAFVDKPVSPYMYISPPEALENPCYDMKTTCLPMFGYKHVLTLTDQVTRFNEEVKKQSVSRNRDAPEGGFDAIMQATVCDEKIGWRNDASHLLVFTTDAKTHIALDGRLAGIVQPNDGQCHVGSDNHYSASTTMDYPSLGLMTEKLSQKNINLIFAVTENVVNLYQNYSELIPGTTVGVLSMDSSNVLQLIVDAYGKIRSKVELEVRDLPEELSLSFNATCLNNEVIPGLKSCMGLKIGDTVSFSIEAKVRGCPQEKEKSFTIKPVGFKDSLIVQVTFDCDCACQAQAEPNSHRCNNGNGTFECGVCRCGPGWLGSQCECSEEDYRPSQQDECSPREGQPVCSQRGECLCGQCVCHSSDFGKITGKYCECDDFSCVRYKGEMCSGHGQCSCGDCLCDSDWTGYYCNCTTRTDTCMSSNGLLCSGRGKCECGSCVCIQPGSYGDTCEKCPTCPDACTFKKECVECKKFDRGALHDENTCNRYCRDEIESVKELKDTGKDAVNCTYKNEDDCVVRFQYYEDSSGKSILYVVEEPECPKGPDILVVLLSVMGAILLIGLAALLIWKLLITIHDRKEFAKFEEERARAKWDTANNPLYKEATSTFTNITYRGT

Row | Compound | IC50 [1] [nM] | IC50 [2] [nM]
1 | O=C(O)C[C@H](NC(=O)[C@@H]1CCCN(C(=O)CCC2CCNCC2)C1)c1cncc(C=Cc2cccc(OCCF)c2)c1 (mixture of isomers) [Example 20, (E/Z)(3S)-3-(5-{2-[3-(2-Fluoroethoxy)phenyl]ethenyl}pyridin-3-yl)-3-[({(3R)-1-[3-(piperidin-4-yl)propanoyl]piperidin-3-yl}carbonyl)amino]propanoic acid] | 7 | –
2 | N#Cc1cc(COc2cncc([C@@H](CC(=O)O)NC(=O)[C@H]3CCCN(C(=O)CCC4CCNCC4)C3)c2)ccc1F (stereo in doubt) [Example 12, (3R)-3-{5-[(3-Cyano-4-fluorobenzyl)oxy]pyridin-3-yl}-3-[({(3S)-1-[3-(piperidin-4-yl)propanoyl]piperidin-3-yl}carbonyl)amino]propanoic acid] | 8 | –
3 | O=C(O)C[C@H](NC(=O)[C@@H]1CCCN(C(=O)CCC2CCNCC2)C1)c1ccc(OCCF)cc1 [Example 2, (3S)-3-[4-(2-Fluoroethoxy)phenyl]-3-[({(3R)-1-[3-(piperidin-4-yl)propanoyl]piperidin-3-yl}carbonyl)amino]propanoic acid] | 29 | 29
4 | O=C(O)C[C@H](NC(=O)[C@@H]1CCCN(C(=O)CCC2CCNCC2)C1)c1cccc(OCCOCCOCCF)c1 [Example 4, (3S)-3-(3-{2-[2-(2-Fluoroethoxy)ethoxy]ethoxy}phenyl)-3-[({(3R)-1-[3-(piperidin-4-yl)propanoyl]piperidin-3-yl}carbonyl)amino]propanoic acid] | 84 | –
5 | O=C(O)C[C@H](NC(=O)[C@@H]1CCCN(C(=O)CCC2CCNCC2)C1)c1cncc(OCCOCCOCCF)c1 [Example 5, (3S)-3-(5-{2-[2-(2-Fluoroethoxy)ethoxy]ethoxy}pyridine-3-yl)-3-[({(3R)-1-[3-(piperidin-4-yl)propanoyl]piperidin-3-yl}carbonyl)amino]propanoic acid] | 16 | –
6 | O=C(O)C[C@H](NC(=O)[C@@H]1CCCN(C(=O)CCC2CCNCC2)C1)c1cncc(-c2cccc(OCCF)c2)c1 [Example 6, (3S)-3-{5-[3-(2-Fluoroethoxy)phenyl]pyridin-3-yl}-3-[({(3R)-1-[3-(piperidin-4-yl)propanoyl]piperidin-3-yl}carbonyl)amino]propanoic acid] | 16 | –
7 | O=C(O)C[C@H](NC(=O)[C@@H]1CCCN(C(=O)CCC2CCNCC2)C1)c1cncc(-c2ccccc2OCCF)c1 [Example 8, (3S)-3-{5-[2-(2-Fluoroethoxy)phenyl]pyridin-3-yl}-3-[({(3R)-1-[3-(piperidin-4-yl)propanoyl]piperidin-3-yl}carbonyl)amino]propanoic acid] | 14 | –
8 | N#Cc1cc(-c2cncc([C@H](CC(=O)O)NC(=O)[C@@H]3CCCN(C(=O)CCC4CCNCC4)C3)c2)ccc1F [Example 9, (3S)-3-[5-(3-Cyano-4-fluorophenyl)pyridin-3-yl]-3-[({(3R)-1-[3-(piperidin-4-yl)propanoyl]piperidin-3-yl}carbonyl)amino]propanoic acid] | 21 | 21
9 | N#Cc1ccc(-c2cncc([C@H](CC(=O)O)NC(=O)[C@@H]3CCCN(C(=O)CCC4CCNCC4)C3)c2)cc1F [Example 10, (3S)-3-[5-(4-Cyano-3-fluorophenyl)pyridin-3-yl]-3-[({(3R)-1-[3-(piperidin-4-yl)propanoyl]piperidin-3-yl}carbonyl)amino]propanoic acid] | 15 | –
10 | O=C(O)C[C@H](NC(=O)[C@@H]1CCCN(C(=O)CCC2CCNCC2)C1)c1cncc(-c2ccc(F)c([N+](=O)[O-])c2)c1 [Example 11, (3S)-3-[5-(4-Fluoro-3-nitrophenyl)pyridin-3-yl]-3-[({(3R)-1-[3-(piperidin-4-yl)propanoyl]piperidin-3-yl}carbonyl)amino]propanoic acid] | 14 | –
11 | N#Cc1ccc(COc2cncc([C@H](CC(=O)O)NC(=O)[C@@H]3CCCN(C(=O)CCC4CCNCC4)C3)c2)cc1F [Example 13, (3S)-3-{5-[(4-Cyano-3-fluorobenzyl)oxy]pyridin-3-yl}-3-[({(3R)-1-[3-(piperidin-4-yl)propanoyl]piperidin-3-yl}carbonyl)amino]propanoic acid] | 7 | –
12 | N#Cc1ccc([C@H](CC(=O)O)NC(=O)[C@@H]2CCCN(C(=O)CCC3CCNCC3)C2)cc1F [Example 14, (3S)-3-(4-Cyano-3-fluorophenyl)-3-[({(3R)-1-[3-(piperidin-4-yl)propanoyl]piperidin-3-yl}carbonyl)amino]propanoic acid] | 15 | –
13 | O=C(O)C[C@H](NC(=O)[C@@H]1CCCN(C(=O)CCC2CCNCC2)C1)c1cncc(C#Cc2ccc(OCCF)cc2)c1 [Example 15, (3S)-3-(5-{[4-(2-Fluoroethoxy)phenyl]ethynyl}pyridin-3-yl)-3-[({(3R)-1-[3-(piperidin-4-yl)propanoyl]piperidin-3-yl}carbonyl)amino]propanoic acid] | 5 | –
14 | O=C(O)C[C@H](NC(=O)[C@@H]1CCCN(C(=O)CCC2CCNCC2)C1)c1cncc(C#Cc2cccc(OCCF)c2)c1 [Example 16, (3S)-3-(5-{[3-(2-Fluoroethoxy)phenyl]ethynyl}pyridin-3-yl)-3-[({(3R)-1-[3-(piperidin-4-yl)propanoyl]piperidin-3-yl}carbonyl)amino]propanoic acid] | 6 | –
15 | O=C(O)C[C@H](NC(=O)[C@@H]1CCCN(C(=O)CCC2CCNCC2)C1)c1cc(F)cc(-c2ccc(OCCF)cc2)c1 [Example 17, (3S)-3-[5-Fluoro-4′-(2-fluoroethoxy)biphenyl-3-yl]-3-[({(3R)-1-[3-(piperidin-4-yl)propanoyl]piperidin-3-yl}carbonyl)amino]propanoic acid] | 35 | –
16 | O=C(O)C[C@H](NC(=O)[C@@H]1CCCN(C(=O)CCC2CCNCC2)C1)c1cncc(CCc2ccc(OCCF)cc2)c1 [Example 18, (3S)-3-(5-{2-[4-(2-Fluoroethoxy)phenyl]ethyl}pyridin-3-yl)-3-[({(3R)-1-[3-(piperidin-4-yl)propanoyl]piperidin-3-yl}carbonyl)amino]propanoic acid] | 3 | 3
17 | O=C(O)C[C@H](NC(=O)[C@@H]1CCCN(C(=O)CCC2CCNCC2)C1)c1cncc(CCc2cccc(OCCF)c2)c1 [Example 19, (3S)-3-(5-{2-[3-(2-Fluoroethoxy)phenyl]ethyl}pyridin-3-yl)-3-[({(3R)-1-[3-(piperidin-4-yl)propanoyl]piperidin-3-yl}carbonyl)amino]propanoic acid] | 3 | 3
